The record followed here is ChEMBL document CHEMBL1134979, “A glucose-selective fluorescence sensor based on boronic acid-diol recognition” (Bioorg Med Chem Lett, 2002).

Assay [1] is described as follows: Binding constant for complexation with Galactose by Fluorescence experiment.
A short description of assay [2]: Binding constant for complexation with Fructose by Fluorescence experiment.
The nature of assay [3]: Binding constant for complexation with glucose by Fluorescence experiment.
Assay [4] is described as follows: Selectivity for Glucose to Fructose was determined by Fluorescence experiment.
Assay [5] is described as follows: Fluorescence intensity change with respect to glucose binding (100 mM) was determined by Fluorescence experiment; PBA is not fluorescent.
A short description of assay [6]: Fluorescence intensity change with respect to glucose binding (100 mM) was determined by Fluorescence experiment; Increased by 0.9 fold.
The nature of assay [7]: Binding constant for complexation with Fructose by Fluorescence experiment; Fluorescence was too small for an accurate Ka determination.
Assay [8] is described as follows: Fluorescence intensity change with respect to glucose binding (100 mM) was determined by Fluorescence experiment; Decreased by 0.5 fold.
Assay [9] in a line: Selectivity for Glucose to Fructose was determined by Fluorescence experiment; Fluorescence intensity change upon binding with fructose was too small for an accurate Ka determination.
Assay [10] in a line: Fluorescence intensity change with respect to glucose binding (100 mM) was determined by Fluorescence experiment; Increased by 4.3 fold.
A short description of assay [11]: Fluorescence intensity change with respect to glucose binding (100 mM) was determined by Fluorescence experiment; Increased by 7.0 fold.
Assay [12] can be described thus: Fluorescence intensity change with respect to glucose binding (100 mM) was determined by Fluorescence experiment; Increased by 5.5 fold.
A short description of assay [13]: Fluorescence intensity change with respect to glucose binding (100 mM) was determined by Fluorescence experiment; Decreased by 0.4 fold.

The structures appear in SMILES notation.

With `OB(O)c1ccccc1`, the Ka in [1] amounted to 15 M⁻¹; in assay [2], 162 M⁻¹; in [3], 5 M⁻¹. The same compound showed a Selectivity in assay [4] of 0.03. In addition, the Activity entry in [5] is “PBA is not fluorescent”.
With `OB(O)c1ccc[n+](Cc2c3ccccc3c(C[n+]3cccc(B(O)O)c3)c3ccccc23)c1`, the Activity entry in [6] was “Increased by 0.9 fold”. This compound returned a Ka in assay [3] of 2510 M⁻¹.
Take `CC1=C2C[C@H]3Cc4c(CO)oc(-c5ccc(B(O)O)cc5)c4C3=C2Oc2cc(B(O)O)ccc21`: the Ka entry in [7] is “Fluorescence was too small for an accurate Ka determination”; in assay [1], 100 M⁻¹; in assay [3] it was 4000 M⁻¹. Moreover, the Activity result in assay [8] is reported as “Decreased by 0.5 fold”. Further, the Selectivity entry in assay [9] is “Fluorescence intensity change upon binding with fructose was too small for an accurate Ka determination”.
Regarding `CN(Cc1ccccc1B(O)O)Cc1c2ccccc2c(CN(C)C(=O)CCCCC(=O)N(C)Cc2c3ccccc3c(CN(C)Cc3ccccc3B(O)O)c3ccccc23)c2ccccc12`, the Ka was 105 M⁻¹ in assay [1], 77 M⁻¹ in assay [2] and 638 M⁻¹ in assay [3]. The Activity result in [10] is reported as “Increased by 4.3 fold”. The Selectivity in [4] turned out to be 8.
In the case of `CN(Cc1ccccc1B(O)O)Cc1c2ccccc2c(CN(C)C(=O)Cc2ccccc2CC(=O)N(C)Cc2c3ccccc3c(CN(C)Cc3ccccc3B(O)O)c3ccccc23)c2ccccc12`, the Ka in [1] turned out to be 30 M⁻¹; in assay [2], 34 M⁻¹; in assay [3], 1470 M⁻¹. Moreover, in [11], the Activity result is on record as “Increased by 7.0 fold”. The Selectivity in [4] was determined as 43.
For the compound `CN(Cc1ccccc1B(O)O)Cc1c2ccccc2c(CN(C)Cc2ccccc2B(O)O)c2ccccc12`, the values for the Ka in [1], in [2] and in [3] were 158 M⁻¹, 316 M⁻¹ and 3980 M⁻¹, respectively. The same compound registered a Selectivity in assay [4] of 13.
Consider `CN(Cc1ccccc1B(O)O)Cc1c2ccccc2c(CN(C)C(=O)c2ccccc2C(=O)N(C)Cc2c3ccccc3c(CN(C)Cc3ccccc3B(O)O)c3ccccc23)c2ccccc12`, for which the Ka in assay [1] is 33 M⁻¹; in assay [2], 283 M⁻¹; in assay [3], 178 M⁻¹. The Activity entry in assay [12] is “Increased by 5.5 fold”. Besides, in [4], the Selectivity worked out at 0.6.
Consider `O=C1c2cccc3cc([N+](=O)[O-])cc(c23)C(=O)N1c1cccc(B(O)O)c1`, for which the Activity result in [13] is reported as “Decreased by 0.4 fold”. In addition, the Ka turned out to be 476 M⁻¹ in assay [2] and 38 M⁻¹ in [3]. In addition, in [4], the Selectivity came to 0.08.
